The subject of this experiment is L. donovani promastigotes. The experiment is described as follows: Growth inhibition of L. donovani promastigotes (resazurin-based assay). Particulars: for inhibition at 25 µM / inhibition at 50 µM / IC50: Leishmania donovani, 72 h, incubation 3 days; for inhibition at 25 µM / inhibition at 50 µM: relative to control; for inhibition at 25 µM: read-out: % Inhibition at 25 µM concentration; for inhibition at 50 µM: read-out: % Inhibition at 50 µM concentration; for IC50: extracellular promastigotes, duplicates, read-out: IC50 ± SD, growth of L. donovani promastigotes; for Potency against promastigotes (in words): dose-response evaluation. On the set-up: Inhibition at both 50 and 25 µM concentrations: unit: %. It counts as cell-based, Leishmania donovani. How it is done:
Out of 20 known Leishmania species pathogenic to humans, L. donovani, which causes visceral leishmaniasis, is the most fatal. Consequently, an in vitro model of L. donovani promastigotes[26] was selected to evaluate the activity of the synthesised pyrrolidine-based 3-deoxysphingosylphosphorylcholine analogs 1e–i, 2a–f, 3a–f at two concentration (50 and 25 µM) employing miltefosine and erufosine (ErPC; erucylphosphocholine) as reference standards using a resazurin-based assay.
For comparison, erufosine and miltefosine were used as reference standards.
L. donovani MHOM/SD/62/1S-CL2D parasites were cultured as promastigotes at 28 °C in M199 medium (Sigma-Aldrich, St. Louis, MO, USA) with 40 mM HEPES, 0.1 mM adenine, 0.0001% biotin, and 4.62 mM NaHCO3 supplemented with 10% foetal bovine serum (FBS, Gibco, Carlsbad, CA, USA), […] penicillin (Gibco), and 100 µg/mL streptomycin (Gibco). Parasites were sub-cultured every 3 or 4 days and maintained for 10 passages.
The plates were analysed using a Victor3TM plate reader (PerkinElmer, Inc., Waltham, MA, USA) at 590 nm (emission) and 530 nm (excitation). Miltefosine and erufosine were used as the reference standards. All measured and calculated values are the averages of duplicates. The dose-response curves were generated by GraphPad Prism 6 software using a sigmoidal dose-response equation with a variable hill slope option.

On to `CCCCCCCC/C=C\CCCCCCCC(=O)N1CCC[C@@H]1COP(=O)([O-])OCC[N+](C)(C)C` [Compound 1c], for which the inhibition at 25 µM was determined as 10% and the inhibition at 50 µM was determined as 51%.
`CCCCCCCC/C=C\CCCCCCCC(=O)N1CC[C@@H](OP(=O)([O-])OCC[N+](C)(C)C)C1` [Compound 3c]: the inhibition at 25 µM came to 106%; the inhibition at 50 µM was found to be 106%; the IC50 – broadly, the point on the concentration scale where inhibition reaches its midpoint – is above 100 µM; the “Activity at both 50 and 25 µM concentrations (in words)” value (“Activity” for short) is on record as “maintained high activity”. The “Potency against promastigotes (in words)” value is “weak potency”.
`CCCCCCCCCCCCCCCC(=O)N1CC[C@H](COP(=O)([O-])OCC[N+](C)(C)C)C1` [Compound 2a]: the inhibition at 25 µM came out at 107%; the inhibition at 50 µM was determined as 108%; the IC50 amounted to 54.6 ± 2.02 µM; the “Activity” value is “highly active”.
On to `CCCCCC/C=C\CCCCCCCC(=O)N1CC[C@@H](OP(=O)([O-])OCC[N+](C)(C)C)C1` [Compound 3b], for which the inhibition at 25 µM was 67% and the inhibition at 50 µM turned out to be 90%.
Turning to `CCCCCCCC/C=C\CCCCCCCCCCCC(=O)N1CC[C@@H](OP(=O)([O-])OCC[N+](C)(C)C)C1` [Compound 3d], the inhibition at 25 µM amounted to 107%; the inhibition at 50 µM turned out to be 104%; the IC50 is above 100 µM; the “Activity” value is “highly active”. Further, the “Potency against promastigotes (in words)” value is “poor potency”.
As for `CC/C=C\C/C=C\C/C=C\CCCCCCCC(=O)N1CC[C@@H](OP(=O)([O-])OCC[N+](C)(C)C)C1` [Compound 3f], the inhibition at 25 µM is -14%; the inhibition at 50 µM amounted to 1%; the “Activity” value is “completely inactive”.
Turning to `CCCCCCCC/C=C\CCCCCCCC(=O)N1CC[C@H](COP(=O)([O-])OCC[N+](C)(C)C)C1` [Compound 2c], the inhibition at 25 µM is -19% and the inhibition at 50 µM amounted to 107%.
With `CCCCCCCC/C=C\CCCCCCCCCCCC(=O)N1CCC[C@H]1COP(=O)([O-])OCC[N+](C)(C)C` [Compound 1g], the inhibition at 25 µM is 110%; the inhibition at 50 µM came out at 109%; the IC50 worked out at 68.47 ± 0.04 µM; the “Activity” value was “highly active”.
On to `CCCCCCCC/C=C\CCCCCCCCCCCC(=O)N1CC[C@H](COP(=O)([O-])OCC[N+](C)(C)C)C1` [Compound 2d], for which the inhibition at 25 µM is 107%; the inhibition at 50 µM came to 109%; the half-inhibitory concentration (IC50) was above 100 µM; the “Activity” value was “highly active”. For the same molecule, the “Potency against promastigotes (in words)” value is “poor potency”.
For the molecule `CCCCC/C=C\C/C=C\CCCCCCCC(=O)N1CCC[C@H]1COP(=O)([O-])OCC[N+](C)(C)C` [Compound 1h], the inhibition at 25 µM was -18%; the inhibition at 50 µM came out at 0%; the “Activity” value is “completely inactive”.
For `CCCCCC/C=C\CCCCCCCC(=O)N1CCC[C@@H]1COP(=O)([O-])OCC[N+](C)(C)C` [Compound 1b], the inhibition at 25 µM was determined as 108%; the inhibition at 50 µM turned out to be 109%; the 50% inhibitory concentration (IC50) was determined as 66.1 ± 3.61 µM; the “Inhibition at both 50 and 25 µM concentrations” value is reported as at least 100.
The corresponding values for `CCCCCCCC/C=C\CCCCCCCCCCCC(=O)N1CCC[C@@H]1COP(=O)([O-])OCC[N+](C)(C)C` [Compound 1d] are 107%, 108%, 46.65 ± 0.45 µM and at least 100.
In the case of `CCCCC/C=C\C/C=C\CCCCCCCC(=O)N1CC[C@@H](OP(=O)([O-])OCC[N+](C)(C)C)C1` [Compound 3e], the inhibition at 25 µM was 0% and the inhibition at 50 µM is 69%.
On the same counts, the results for `CCCCC/C=C\C/C=C\CCCCCCCC(=O)N1CC[C@H](COP(=O)([O-])OCC[N+](C)(C)C)C1` [Compound 2e] are 34% and 101%.
Turning to `CC/C=C\C/C=C\C/C=C\CCCCCCCC(=O)N1CC[C@H](COP(=O)([O-])OCC[N+](C)(C)C)C1` [Compound 2f], the inhibition at 25 µM was determined as 0%; the inhibition at 50 µM came out at 9%; the “Activity” value is “completely inactive”.
The corresponding values for `CC/C=C\C/C=C\C/C=C\CCCCCCCC(=O)N1CCC[C@H]1COP(=O)([O-])OCC[N+](C)(C)C` [Compound 1i] are -16%, 1% and “completely inactive”.
Take `CCCCCCCC/C=C\CCCCCCCC(=O)N1CCC[C@H]1COP(=O)([O-])OCC[N+](C)(C)C` [Compound 1f]: the inhibition at 25 µM worked out at 65% and the inhibition at 50 µM was determined as 108%.
On to `CCCCCCCCCCCCCCCC(=O)N1CC[C@@H](OP(=O)([O-])OCC[N+](C)(C)C)C1` [Compound 3a], for which the inhibition at 25 µM came out at 108%; the inhibition at 50 µM came to 109%; the IC50 is above 100 µM; the “Activity” value is reported as “highly active”. Further, the “Potency against promastigotes (in words)” value is given as “weak potency”.
For the molecule `CCCCCC/C=C\CCCCCCCC(=O)N1CC[C@H](COP(=O)([O-])OCC[N+](C)(C)C)C1` [Compound 2b], the inhibition at 25 µM was found to be 27% and the inhibition at 50 µM was 98%.
